{"source": "patent US12617818B2", "about": "“Compositions and methods for modulating myosin subfragment-2 coiled coil stability and methods for using them” (UNIVERSITY OF NORTH TEXAS, priority 2020, dated 2026)", "key": {"[1]": {"tested_on": "human cardiac myosin S2 peptide", "assay": "Competitive ELISA (cELISA) against polyclonal anti-S2 antibody", "type": "binding", "conditions": "low-high-low OD trend", "experimental": "Phosphate buffer saline (PBS) contained 0.14 M sodium chloride, 2.7 mM potassium chloride, 1.5 mM potassium phosphate monobasic, and 8.1 mM sodium phosphate dibasic with pH 7.4. Detergent buffer was made with 0.05% triton X-100 in PBS, blocking buffer was made with 3% powdered milk in detergent buffer. Assay buffer contained 100 mM potassium phosphate dibasic, 100 mM potassium phosphate monobasic, 1 M potassium chloride and 10 mM magnesium chloride with pH 7.0. Stocks of primary antibody (polyclonal antibody anti-S2), rabbit skeletal myosin, human cardiac myosin S2 peptide, stabilizer and destabilizer peptide. Secondary antibody conjugated with alkaline phosphatase was anti-guinea pig immunoglobulin G (IgG)-alkaline phosphatase (Sigma-Aldrich, catalog number A5062) produced in goat and isolated by affinity chromatography. Substrate was 5-Bromo-4-chloro-3-indolyl phosphate (BCIP) tablets dissolved in 10 ml of distilled water per tablet and 96 well microtiter plate.\nCompetitive Enzyme Linked Immunosorbent Assay (cELISA) is a classical immunochemical test to validate the binding efficiency and specificity in lower molar concentrations (Yorde et al., 1976; Voller et al., 1978; Walker, J. M. 1996). In this assay the polyclonal antibody anti-S2 raised against single alpha helix of myosin S2 would be used to compete with stabilizer or destabilizer peptide to bind myosin S2 in rabbit skeletal myosin molecule as well as small human cardiac myosin S2 peptide. This cELISA, thus have two molecules polyclonal anti-S2 and stabilizer peptide which have two binding sites one on rabbit skeletal myosin and the other one being on small human cardiac myosin S2. Since both polyclonal anti-S2 and stabilizer peptide were designed against human β-cardiac myosin S2 they both would have a stronger affinity towards the smaller human β-cardiac myosin S2 peptide against the myosin S2 on rabbit skeletal myosin.\nTo test the binding specificity and efficiency of stabilizer or destabilizer peptide the following setup was used. Start of the setup would be to coat the wells with rabbit skeletal myosin molecule and add appropriate amount human cardiac myosin S2 peptide that would bind the primary polyclonal anti-S2 antibody and when washed there won't be enough primary polyclonal anti-S2 antibody to bind myosin S2 of rabbit skeletal myosin adsorbed on the wells. When alkaline phosphatase conjugated secondary antibody is added on to the wells, it won't have enough or none primary polyclonal anti-S2 antibody to bind. After addition of color developing BCIP substrate to the wells it would lead to low or no color development leading to lower optical density (OD). […]"}, "[2]": {"tested_on": "rabbit skeletal myosin (myosin S2 coiled coil)", "assay": "GFS with rabbit skeletal myosin tethered by S1 heads to G-actin", "type": "biochemical", "experimental": "To test stability and flexibility of myosin S2 peptide two different types of conjugation was performed to tether the molecule between the immobile edge and mobile edge. First conjugation was crosslinking the muscle myosin S2 peptides to immobile edge and mobile bead. A different conjugation was benefiting from the binding property of actin to myosin S1. Rabbit skeletal myosin molecule at myosin S1 position was bound with G-actin treated immobile edge and mobile bead.\nThis conjugation was done by first, treating glass coverslips and silica beads with 0.04% 3-aminopropyltriethoxylsilane in acetone to add the aminosilane groups to both glass coverslips and silica beads. To cross link G-actin to the aminosilanated glass coverslips and silica beads 740 mM 1-ethyl-3-(3 dimethyaminopropyl) carbodiimide was used with help of 60 μM N-hydroxysuccinamide. To block any unreacted group, glycine quenching solution was added. Lastly, both glass coverslips and silica beads went over several washes with low salt buffer and were stored in the same low salt buffer for GFS experiments.\nThe point of attachment to tether myosin molecule between immobile edge of the coverslip and mobile beads, was at the acto-myosin S1 binding region. The edge of the coverslips and silica beads are coated with G-actin molecules. […]"}}, "data": [{"smiles": "CSCC[C@H](NC(=O)[C@H](CCC(=O)O)NC(=O)[C@H](CCCNC(=N)N)NC(=O)[C@H](CCC(=O)O)NC(=O)[C@H](CC(=O)O)NC(=O)[C@H](CCC(=O)O)NC(=O)[C@H](CC(C)C)NC(=O)[C@H](CCCNC(=N)N)NC(=O)[C@H](CCC(=O)O)NC(=O)[C@H](CC(N)=O)NC(=O)[C@H](CCSC)NC(=O)[C@@H](N)CCC(=O)O)C(=O)N[C@@H](CCCCN)C(=O)N[C@@H](C)C(=O)N[C@@H](CCC(=O)O)C(=O)N[C@@H](CC(C)C)C(=O)N[C@H](C(=O)N[C@@H](C)C(=O)N[C@@H](CCCCN)C(=O)O)[C@@H](C)O", "note": "[Destabilizer]", "values": [{"measurement": "cross specificity to human cardiac myosin S2 and rabbit skeletal myosin S2", "setting": "[1]", "result": "cross specific"}, {"measurement": "force required to uncoil myosin relative to absence of peptide (less)", "setting": "[2]; destabilizer peptide vs control", "result": 1.6, "unit": "times"}, {"measurement": "Force required to uncoil the myosin molecule", "setting": "[2]; length 100 nm, in presence of destabilizer peptide", "result": "3.09±0.05", "unit": "pN"}]}]}
